Ten molecules from US20070098735A1, “Methods for the Elimination of Pathogens and Other Particulate Agents” (priority 2005, published 2007) can be followed below.

For test [1], the system named is full thickness surgical wounds on the dorsum of BALB/cJ mice. Briefly: Closure of full thickness surgical wounds, percent wound closure. Format: in vivo. As to conditions: day 2 post surgery; for wound healing on day 2: 30 μg/dose. As to the method:
Surgery and Treatment. Mice were anesthetized using Ketamine (2.0 mg/mouse) and Xylazine (0.1 mg/mouse) were administered intraperitoneally (IP) and the dorsal skin was shaved. After sterile prepping of the area, a full thickness circular wound, 8 mm diameter, was made on the dorsal skin using a disposable biopsy punch (Miltex Inc, York, Pa.) on the midline of the dorsum approximately at the iliac crest. The mice were then randomly assigned into the treatment groups. Initial wound measurements were performed while the mice were still anesthetized. Mice were then treated on days 0, 2, 4, and 6 unless otherwise specified. All agents used as treatment were diluted in 0.5 ml of PBS and injected using a 25-gauge needle in the subcutaneous space in the nape of the neck. The surgical procedures, post-operative monitoring, and safety concerns were approved by the Institutional Animal Care and Usage Committee.
Measurements and Analysis. Wound healing of open wounds is a complex process with many parameters to consider. […] The wound surface area was determined by measuring the craniocaudal and lateromedial distances using vernier calipers in perpendicular axis on days 0, 2, 4, 6, 9, and 11 postoperatively unless noted. Changes in wound area were expressed as percent wound closure. Wound closure data was plotted as average percent wound closure ±SEM unless otherwise noted. All calculations and data analysis were performed using Microsoft Excel and Sigma Plot. Sigma Plot was used to perform Student's t-tests for reported P values.
Full thickness surgical wounds were created on the dorsum of BALB/cJ mice as described in Methods. Wounds were made on day 0. Subsequently, the wounds were treated with exogenous injections of HSP70, HSP90, gp96 (30 μg/dose) or buffer administered subcutaneously (SC) on days 0, 2, 4 and 6 following surgery (FIG. 6A). The wounds were measured on days 0, 2, 4, 6, 9, 11 unless otherwise noted. Wounds were measured serially, percent wound closure was calculated and plotted against time in order to quantitate the rate of healing by secondary intention. […] Data is plotted as average percent wound closure ±SEM on days indicated. Two mice from each treatment group (PBS (n=12), HSP70 (n=11), HSP90 (n=12), and gp96 (n=11)) were sacrificed for histology on days 2, 4, and 6 post-surgery (data not shown). The P values obtain using the Student's t-test.
Results are of average percent wound closure ±SEM on day 2 post surgery. The *P values were obtained using the Student's t-test by comparing HSP treatment to all of the non-HSP control treatments. The least significant P value was reported. […] Doses higher than 50 μg/dose were not tested.

In test [2] the test system is Murine macrophage lines (RAW264.7, J774.A1 or RAW264NO-). Briefly: Phagocytosis assay in vitro (uptake of Alexa Fluor 488-labeled particles). In kind it is cell-based. Also on record: effect of LR-disrupting drugs on HSP70-mediated phagocytosis: dose or concentration left out as unconfirmed. As to conditions: for uptake of labeled S. cerevisiae as compared to treatment with HSP70 (specificity controls): equimolar to HSP70 100 μg/ml, BSA 100 μg/ml, concavalin A 6 μg/ml, adjuvants 10 μl/well, ADP, ATP 3 mM. As to the method: Phagocytosis Assay in vitro. RAW 264.7, RAW264.7 (NO-) and J774A.1 cells were cultured in DMEM or RPMI (RAW NO-) with 10% FCS, harvested, and washed. 3×10^5 cells/well were incubated in serum-free Earle's minimal essential medium (EMEM) in a 24-well plate for 1 hour at 37° C. Alexa Fluor® 488-labeled particles (inert polystyrene microspheres; or yeast, Saccharomyces cerevisiae or Gram-negative bacteria, Escherichia coli, 40 particles/macrophage) were added and co-incubated in a dark environment for 60 minutes in serum free EMEM with or without HSPs, LPS, or control proteins. At the end of 60 minutes incubation, the plate was covered in a dark container on ice. Specific measures were taken to exclude the fluorescence that resulted from particles that were outside of the cell or sticking to the surface of the cell. […] Specifically, trypan blue (0.8 mg/ml) was added for 60 seconds and plates were analyzed immediately using FluorImager SI (Molecular Dynamics/Amersham). Since the emission of Alexa Fluor® 488, about 519 nm at an excitation of about 490 nm, falls within the absorbance range of trypan blue (475-675 nm), the fluorescence of the sample only represents the intracellular fluorescence. External or surface-bound fluorescence is quenched. Using Student's t test, the results were analyzed and P-values were calculated.
HSP-mediated phagocytosis was quantified by measuring the internalized fluorescence measured by FluorImager SI and Relative Mean Fluorescence Intensity (RMFI) was compared between the treatment groups (as indicated). All the treatment groups were compared to medium alone using the Student's t test and significance denoted by P<0.01. The error bar represents one standard deviation. The results shown are a cumulative analysis of 3 experiments, 3 wells/group.

Test [3] relates to CD4+ T cells purified from spleens of DO 11.10 mice. Put plainly: Proliferation of CD4+ T cells after MHC-II presentation of OVA-coated yeast by macrophages (FACS). In kind it is cell-based. The note with it: cytochalasin-D treatment. The method, then:
Proliferation of CD4+ T cells and INF-γ (interferon gamma) release. Unlabeled S. cerevisiae (80 μg) was incubated with excess chicken ovary albumin (OVA) at 37° C. for 1 hour and washed repeatedly to eliminate free OVA protein. S. cerevisiae-OVA complexes (OVA-coated yeast) were administered to macrophages treated with or without HSP70. Macrophages were then washed and irradiated at 12,000 rads and assessed for viability by trypan blue exclusion. Subsequently, they were co-cultured with CD4+ T lymphocytes that were purified from spleens of DO 11.10 mice and labeled with carboxyfluoroscein succinimidyl ester (CSFE). […] Following the 48-hour incubation, proliferation of CD4+ cells was determined with FACS and IFN-γ release in the supernatant was tested by enzyme-linked immunosorbent assay (ELISA; Pierce, Ill.).
Alexafluor labeled S. cerevisiae were coated with whole ovalbumin (OVA) protein 1 mg/ml by co-incubation at 37° C. for 20 minutes and washed until free OVA protein was removed (washes were tested by gel electrophoresis using SDS-PAGE and immunoblotting). […] Resultant proliferation of the CSFE-labeled CD4+ was measured by FACS as an indirect measure of the amount of OVA protein processed and its peptide epitope presented in context of MHC-II. […]

Take `O=c1[nH]c(=O)c2[nH]c(=O)[nH]c2[nH]1` [uric acid, reference compound]: in test [1], the “wound healing on day 2” value was 13% and the “wound closure of non-HSP controls compared to PBS control” value was “not significantly different to the PBS control”.
Consider concavalin A, for which the “uptake of labeled S. cerevisiae as compared to treatment with HSP70 (specificity controls)” value in test [2] is on record as “None of control proteins used enhanced uptake”.
`Nc1ncnc2c1ncn2[C@@H]1O[C@H](COP(=O)(O)OP(=O)(O)O)[C@@H](O)[C@H]1O` [ADP, adenosine diphosphate]: in test [2], the “uptake of labeled S. cerevisiae as compared to treatment with HSP70 (specificity controls)” value was “ineffective”.
On to `Nc1ncnc2c1ncn2[C@@H]1O[C@H](COP(=O)(O)OP(=O)(O)OP(=O)(O)O)[C@@H](O)[C@H]1O` [ATP, adenosine triphosphate], for which, in test [2], the “uptake of labeled S. cerevisiae as compared to treatment with HSP70 (specificity controls)” value was “ineffective”.
In the case of `C[C@@H]1[C@H](O)[C@@H](C)/C=C/C=C/CC/C=C/C=C/C=C/C=C/C(O[C@H]2O[C@H](C)[C@@H](O)[C@H](N)[C@@H]2O)CC2O[C@](O)(CC(O)C(O)CCC(O)CC(O)CC(O)CC(=O)O[C@H]1C)CC(O)C2C(=O)O` (some centres unmarked) [nystatin], the “effect of LR-disrupting drugs on HSP70-mediated phagocytosis” value in test [2] (nystatin or MCD, labeled yeast 40 particles/macrophage) is reported as “HSP70-mediated phagocytosis was inhibited”.
bovine serum albumin [BSA]: in test [2], the “uptake of labeled S. cerevisiae as compared to treatment with HSP70 (specificity controls)” value is listed as “None of control proteins used enhanced uptake”.
On to beta galactosidase, for which the “uptake of labeled S. cerevisiae as compared to treatment with HSP70 (specificity controls)” value in test [2] is “None of control proteins used enhanced uptake”.
On to `C=CCn1c(=O)n([C@@H]2O[C@H](CO)[C@@H](O)[C@H]2O)c2nc(N)[nH]c(=O)c21` [LRB, Loxoribine], for which, in test [2] (LRB 0-330 μM, HSP70 100 μg/ml), the “dose dependence of inhibitory effect on HSP70-mediated phagocytosis” value is on record as “titratable by dose”.
On to `C=C1[C@@H](C)[C@H]2[C@H](Cc3ccccc3)NC(=O)[C@]23[C@H](OC(C)=O)/C=C/[C@@](C)(O)C(=O)[C@@H](C)C/C=C/[C@H]3[C@@H]1O` [cytochalasin-D, reference compound], for which the “effect on CD4+ proliferation caused by HSP70-treatment” value in test [3] was “abrogated the proliferation caused by HSP70-treatment”. Moreover, in test [2] (cytochalasin-D 4 μM with HSP70), the “effect on HSP70-mediated internalization (actin polymerization inhibited)” value is recorded as “showed inhibition of the effects of HSP70”.

B1: phosphorylase B (protein, UniProt P00489 2-843, looked up)
Glycogen phosphorylase, …: SRPLSDQEKRKQISVRGLAGVENVTELKKNFNRHLHFTLVKDRNVATPRDYYFALAHTVRDHLVGRWIRTQQHYYEKDPKRIYYLSLEFYMGRTLQNTMVNLALENACDEATYQLGLDMEELEEIEEDAGLGNGGLGRLAACFLDSMATLGLAAYGYGIRYEFGIFNQKICGGWQMEEADDWLRYGNPWEKARPEFTLPVHFYGRVEHTSQGAKWVDTQVVLAMPYDTPVPGYRNNVVNTMRLWSAKAPNDFNLKDFNVGGYIQAVLDRNLAENISRVLYPNDNFFEGKELRLKQEYFVVAATLQDIIRRFKSSKFGCRDPVRTNFDAFPDKVAIQLNDTHPSLAIPELMRVLVDLERLDWDKAWEVTVKTCAYTNHTVLPEALERWPVHLLETLLPRHLQIIYEINQRFLNRVAAAFPGDVDRLRRMSLVEEGAVKRINMAHLCIAGSHAVNGVARIHSEILKKTIFKDFYELEPHKFQNKTNGITPRRWLVLCNPGLAEIIAERIGEEYISDLDQLRKLLSYVDDEAFIRDVAKVKQENKLKFAAYLEREYKVHINPNSLFDVQVKRIHEYKRQLLNCLHVITLYNRIKKEPNKFVVPRTVMIGGKAAPGYHMAKMIIKLITAIGDVVNHDPVVGDRLRVIFLENYRVSLAEKVIPAADLSEQISTAGTEASGTGNMKFMLNGALTIGTMDGANVEMAEEAGEENFFIFGMRVEDVDRLDQRGYNAQEYYDRIPELRQIIEQLSSGFFSPKQPDLFKDIVNMLMHHDRFKVFADYEEYVKCQERVSALYKNPREWTRMVIRNIATSGKFSSDRTIAQYAREIWGVEPSRQRLPAPDEKIP
notes: control protein of molecular weight corresponding to the HSPs
For the molecule B1, in test [2], the “uptake of labeled S. cerevisiae as compared to treatment with HSP70 (specificity controls)” value is on record as “None of control proteins used enhanced uptake”. In test [1], the “wound healing on day 2” value was determined as 19% and the “wound closure of non-HSP controls compared to PBS control” value is “not significantly different to the PBS control”.
